These results are taken from paper PMC3753695 (Neuron, 2013).

The target of this assay is T1, OBP49a (Drosophila melanogaster, UniProt A1Z947).
T1 sequence (A1Z947 23-212): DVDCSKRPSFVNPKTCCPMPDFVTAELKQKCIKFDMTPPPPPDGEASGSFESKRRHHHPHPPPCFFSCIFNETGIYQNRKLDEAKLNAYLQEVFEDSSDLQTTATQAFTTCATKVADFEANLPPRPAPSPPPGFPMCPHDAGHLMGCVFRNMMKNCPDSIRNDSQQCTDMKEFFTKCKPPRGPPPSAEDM
As to the kind of experiment: surface plasmon resonance. It counts as binding. The following applies: pH 7.4; 25 °C; HBS-P (10 mM HEPES, 150 mM NaCl, 0.005 % Surfactant P20); dose-dependent. Background: Surface plasmon resonance follows binding to a sensor surface in real time, without labels.

Turning to `COc1ccc2cc3[n+](cc2c1OC)CCc1cc2c(cc1-3)OCO2` [berberine], the “surface plasmon resonance (BIAcore 3000, OBP49a on CM5 chip)” value (“surface plasmon resonance” for short) was “berberine, denatonium and quinine bound to OBP49a in a dosedependent manner”.
On to `CC[N+](CC)(CC(=O)Nc1c(C)cccc1C)Cc1ccccc1` [denatonium], for which the “surface plasmon resonance” value was “berberine, denatonium and quinine bound to OBP49a in a dosedependent manner”.
As for `C=C[C@H]1CN2CC[C@H]1C[C@H]2[C@H](O)c1ccnc2ccc(OC)cc12` [quinine], the “surface plasmon resonance” value was “berberine, denatonium and quinine bound to OBP49a in a dosedependent manner”.
